Data taken from article PMC10518255, “A first-in-class pan-lysyl oxidase inhibitor impairs stromal remodeling and enhances gemcitabine response and survival in pancreatic cancer” (Nature Cancer, 2023).
Several values for one entry are separate records, joined by “and”; a condition that tells them apart may be missing. Equal values may be shown once.

Legend:
KPC CAFs = assay: 2D cell viability assay (MTS); format: cell-based, mouse; conditions: for 2D cell viability (MTS assay): CAFs, replicates
Procedure: (§1) The 2D cell viability assays were performed using KPC CAFs and CCs seeded at (250 CAFs per well) and (500 CCs per well) in a 96-well plate. MTS solution (Promega) was added to the cells at a 1:20 dilution and cells were incubated at 37 °C for 2 h. Cell proliferation rates were measured by detecting the absorbance at 490 nm using a microplate reader. Three biological repeats were performed.
(§2) Data presented as mean values +/− SD. f. […] Data presented as mean values +/− SD. […] Data presented as mean values +/− SD. […] Data presented as mean values +/− SD. Ordinary one-way ANOVA for multiple comparison test performed. Source data

[1] = 2D cell viability assay (MTS); format: cell-based, mouse; conditions: mouse, replicates
Procedure: as §1, §2

KPC CCs = assay: 2D cell viability assay (MTS); format: cell-based, mouse; conditions: for 2D cell viability (MTS assay): Cancer cells, replicates
Procedure: as §1, §2

Plasma protein binding = format: in vitro ADME; conditions: In vitro (human), read-out: Plasma protein binding, % bound (converted)
SSAO = molecular target: T1, SSAO (Homo sapiens, UniProt Q16853); assay: Substrate turnover by H2O2 release, amplex red coupled fluorometric activity assay (Extended Data Fig. 3a); format: biochemical
T1 sequence (Q16853 1-763): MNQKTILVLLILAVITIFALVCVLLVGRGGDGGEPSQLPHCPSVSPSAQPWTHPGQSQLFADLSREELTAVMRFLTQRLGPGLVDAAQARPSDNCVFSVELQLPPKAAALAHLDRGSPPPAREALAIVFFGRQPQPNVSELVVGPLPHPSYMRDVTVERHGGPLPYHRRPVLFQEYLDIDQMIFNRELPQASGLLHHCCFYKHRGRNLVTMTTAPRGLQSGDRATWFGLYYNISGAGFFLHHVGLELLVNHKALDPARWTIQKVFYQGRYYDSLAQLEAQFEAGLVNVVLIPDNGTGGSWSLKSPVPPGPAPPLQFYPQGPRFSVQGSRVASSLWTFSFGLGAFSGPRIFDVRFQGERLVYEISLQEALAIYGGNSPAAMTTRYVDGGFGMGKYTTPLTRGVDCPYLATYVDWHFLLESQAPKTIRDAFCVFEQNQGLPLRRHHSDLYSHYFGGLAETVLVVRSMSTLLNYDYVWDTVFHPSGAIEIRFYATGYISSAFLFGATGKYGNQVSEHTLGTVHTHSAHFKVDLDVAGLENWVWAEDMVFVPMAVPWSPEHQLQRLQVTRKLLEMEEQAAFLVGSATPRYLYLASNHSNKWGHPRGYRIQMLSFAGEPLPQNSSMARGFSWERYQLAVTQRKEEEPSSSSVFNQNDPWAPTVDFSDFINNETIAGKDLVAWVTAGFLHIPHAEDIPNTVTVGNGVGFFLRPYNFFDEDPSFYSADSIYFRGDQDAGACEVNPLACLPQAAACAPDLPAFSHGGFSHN
Description: (§3) Specifically, BAPN is oxidized by diamine oxidase (DAO) and semicarbazide-sensitive amine oxidase (SSAO)/vascular adhesion protein 1 (VAP-1) in the vasculature (Extended Data Fig. 3a), which releases hydrogen […] (H2O2) and aldehyde in humans leading to toxicity.
as §2

DAO = molecular target: T2, DAO (Homo sapiens, UniProt P19801); assay: as above; format: biochemical
T2 sequence (P19801 20-751): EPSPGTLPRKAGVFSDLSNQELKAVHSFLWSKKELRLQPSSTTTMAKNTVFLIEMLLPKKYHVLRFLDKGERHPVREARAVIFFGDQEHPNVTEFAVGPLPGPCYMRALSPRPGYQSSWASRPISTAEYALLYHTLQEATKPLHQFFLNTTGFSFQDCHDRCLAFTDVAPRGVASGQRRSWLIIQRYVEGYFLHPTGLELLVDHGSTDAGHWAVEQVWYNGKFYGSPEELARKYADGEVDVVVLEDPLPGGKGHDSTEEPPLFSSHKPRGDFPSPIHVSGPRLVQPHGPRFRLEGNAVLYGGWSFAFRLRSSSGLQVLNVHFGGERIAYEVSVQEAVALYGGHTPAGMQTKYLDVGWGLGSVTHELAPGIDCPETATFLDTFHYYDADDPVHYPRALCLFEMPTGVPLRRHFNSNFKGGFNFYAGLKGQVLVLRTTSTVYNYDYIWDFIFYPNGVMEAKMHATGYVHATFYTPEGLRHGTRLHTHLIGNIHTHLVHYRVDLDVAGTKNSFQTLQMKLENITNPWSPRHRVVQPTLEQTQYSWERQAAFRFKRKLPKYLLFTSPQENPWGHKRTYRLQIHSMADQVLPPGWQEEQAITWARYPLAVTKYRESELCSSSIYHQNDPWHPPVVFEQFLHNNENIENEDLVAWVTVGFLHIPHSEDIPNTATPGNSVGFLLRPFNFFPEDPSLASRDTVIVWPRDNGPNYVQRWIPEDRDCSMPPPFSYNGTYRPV
Description: as §3, §2

[2] = listed as value 30 (unit not given)
[3] = listed as value 60 (unit not given)
[4] = listed as value 300 (unit not given)

Cl.Cl.NC/C=C(\F)CS(=O)(=O)c1cccc2cccnc12.O [PXS-5505, (Z)-3-fluoro-4-(quinolin-8-ylsulfonyl)but-2-en-1-amine dihydrochloride monohydrate]
2D cell viability (MTS assay) (KPC CAFs; PXS-5505 0.3 (unit not given)): 89.24 and 85.85
2D cell viability (MTS assay) (KPC CAFs; PXS-5505 3 (unit not given)): 104.51 and 107.51
2D cell viability (MTS assay) (KPC CAFs; PXS-5505 30 (unit not given)): 111.18 and 108.48
2D cell viability (MTS assay) (KPC CAFs; PXS-5505 100 (unit not given)): 94.55 and 103.25
2D cell viability (MTS assay) (KPC CAFs; PXS-5505 300 (unit not given)): 90.49 and 84.11
effect on proliferation, 2D (KPC CAFs; KPC CAFs, up to 300 µM): nor did it show any effect on proliferation
viability ([1]; KPC CAFs (2D culture), CAFs, PXS-5505 0.3 (unit inferred)): 100%
viability ([1]; KPC CAFs (2D culture), CAFs, PXS-5505 3 (unit inferred)): 94.8%
viability ([1]; KPC CAFs (2D culture), CAFs, PXS-5505 30 (unit inferred)): 101%
viability ([1]; KPC CAFs (2D culture), CAFs, PXS-5505 100 (unit inferred)): 89.7%
viability ([1]; KPC CAFs (2D culture), CAFs, PXS-5505 300 (unit inferred)): 92.6%
viability ([1]; KPC cancer cells (CCs, 2D culture), Cancer cells, PXS-5505 0.3 (unit inferred)): 100%
viability ([1]; KPC cancer cells (CCs, 2D culture), Cancer cells, PXS-5505 3 (unit inferred)): 109%
viability ([1]; KPC cancer cells (CCs, 2D culture), Cancer cells, PXS-5505 30 (unit inferred)): 110%
viability ([1]; KPC cancer cells (CCs, 2D culture), Cancer cells, PXS-5505 100 (unit inferred)): 102%
viability ([1]; KPC cancer cells (CCs, 2D culture), Cancer cells, PXS-5505 300 (unit inferred)): 98.8%
2D cell viability (MTS assay) (KPC CCs; PXS-5505 0.3 (unit not given)): 100 and 109.75
2D cell viability (MTS assay) (KPC CCs; PXS-5505 3 (unit not given)): 110.09 and 116.21
2D cell viability (MTS assay) (KPC CCs; PXS-5505 30 (unit not given)): 104.54 and 100.45
2D cell viability (MTS assay) (KPC CCs; PXS-5505 100 (unit not given)): 94.9 and 85.15
2D cell viability (MTS assay) (KPC CCs; PXS-5505 300 (unit not given)): 94.9 and 96.71
effect on proliferation, 2D (KPC CCs; KPC CCs, up to 300 µM): nor did it show any effect on proliferation
fraction unbound (Plasma protein binding): 0.78
processing as a substrate by SSAO/VAP-1 (SSAO): not processed as a substrate
Turnover by SSAO as measured by H2O2 release, mean (SSAO; [2]): 1.019
Turnover by SSAO as measured by H2O2 release, mean (SSAO; [3]): 1.0116
Turnover by SSAO as measured by H2O2 release, mean (SSAO; [4]): 1.1921
processing as a substrate by DAO (DAO): not processed as a substrate
Turnover by DAO as measured by H2O2 release, mean (DAO; [2]): 0.9677
Turnover by DAO as measured by H2O2 release, mean (DAO; [3]): 0.9315
Turnover by DAO as measured by H2O2 release, mean (DAO; [4]): 1.1475
